Assay results as given in patent publication US12510524B2, “Compositions containing cannabinoid analog conjugates and methods of use” (priority 2014, dated 2025).
Values joined by “and” are separate entries in the source; they are usually repeats but may differ in a detail not shown here. Identical values can stand only once. Like-named read-outs stand apart in the source and are kept apart here.

Experiments:
[1] = system: DLBCL cancer cell lines; experiment: MTS cell viability assay, DLBCL cell lines as a group; assay type: cell-based; conditions: for effect on the viability of DLBCL cancer cell lines: EJ, U2932, CJ and LY19, 72 h incubation, FIGS. 13-16; for IC50: read-out: Average IC50
Description: (§1) The effects of SR141716 and VYR206 were analyzed. MTS assays for cell viability (72 h incubation) were performed on diffuse large B-cell lymphoma (DLBCL) cells—LR, MS, RC and DOHH2 (FIGS. 18A-18D) and mantle cell lymphoma (MCL) cells—Jeko, Mino, Rec-1 and JMP1 (FIGS. 19A-19D).

[2] = system: MS cell line; experiment: High throughput screening of cell viability, MS; assay type: cell-based; conditions: 72-hour incubation
Description: (§2) High throughput screening ([…]) assessment of cell viability in 16 DLBCL (FIGS. 20A and 20B) and 8 MCL (FIG. 20C) cell lines were assessed following treatment a 72-hour incubation of the cell lines with cannabidiol, which was obtained as CBD in a coconut oil extract. Cell viability, 90% of the all cells tested, remained viable in a concentration range of 0-5 μM CBD. Complete cell death was obtained at 25 μM CBD concentration only for two cancer cell lines, HT and EJ (FIG. 20B); 50 μM CBD concentration gave a complete cell death viability in seven cell lines MZ, HF, HB, CJ, MS, Toledo and EJ (FIGS. 20A and 20B).

[3] = system: DLBCL (RC) and MCL (Mino) cancer cell lines; experiment: MTS cell viability assay, CBD alone and in combination with chemotherapeutics; assay type: cell-based; conditions: at the given amounts, 72 h incubation
Description: (§4) The formazan dye is quantified by measuring the absorbance at 490-500 nm.
Cell viability assays (MTS) were performed to determine the viability of DLBCL (RC) and MCL (Mino) cancer cell lines in vitro (72 hour-incubation) in the presence of CB2-agonist—CBD alone and in combination with ibrutinib. Cell viability assays (MTS) were performed to determine the viability of DLBCL (RC) and MCL (Mino) cancer cell lines in vitro (72 h incubation) in the presence of CBD alone and in combination with zanubrutinib (BGB). Cell viability assays (MTS) were performed to determine the viability of DLBCL (RC) and MCL (Mino) cancer cell lines in vitro (72 h incubation) in the presence of CBD alone and in combination with carfilzomib (CFZ). Cell viability assays (MTS) were performed to determine the viability of DLBCL (RC) and MCL (Mino) cancer cell lines in vitro (72 h incubation) in the presence CBD alone and in combination with tumorex (TMX).

[4] = system: MZ cell line; experiment: High throughput screening of cell viability, MZ; assay type: cell-based; conditions: 72-hour incubation
Description: as §2

[5] = system: HT cancer cell line; experiment: High throughput screening of cell viability, HT; assay type: cell-based; conditions: 72-hour incubation
Description: as §2

[6] = system: Toledo cell line; experiment: High throughput screening of cell viability, Toledo; assay type: cell-based; conditions: 72-hour incubation
Description: as §2

[7] = system: 16 DLBCL and 8 MCL cell lines; experiment: High throughput screening of cell viability, all cell lines; assay type: cell-based; conditions: all cells tested; concentration range 0-5 μM; 72-hour incubation
Description: as §2

[8] = system: MT cell line; experiment: High throughput screening of cell viability, MT; assay type: cell-based; conditions: 72-hour incubation, read-out: concentration range at which 50% cell viability was reached
Description: as §2

[9] = system: mantle cell lymphoma cancer cells (Mino, Jeko, SP53, Maver-1Z138, JMP-1, Rec-1 and PF-1); experiment: High throughput screening of cell viability, MCL cell lines; assay type: cell-based; conditions: concentration range from 15 μM to 25 μM; FIG. 20C
Description: as §2

[10] = system: CJ cell line; experiment: High throughput screening of cell viability, CJ; assay type: cell-based; conditions: 72-hour incubation
Description: as §2

[11] = system: Cancer cell line DOHH2; experiment: High throughput screening of cell viability, DOHH2; assay type: cell-based; conditions: lower concentration (0-25 μM)
Description: as §2

[12] = system: cleaved PARP in RC cells; experiment: Immunoblot of apoptosis induction in RC cells; assay type: cell-based; conditions: 24 hrs
[13] = system: CB2 receptor expression; experiment: Blot analysis of CB2 expression in DLBCL and MCL cell lines; assay type: cell-based; conditions: FIGS. 21B and 21C
Description: The effect of different amounts of combinations of VYR206 and CBD on various DLBCL and MCL cell lines were evaluated by immunoblot analysis. Immunoblot analysis of cell lysates from various DLBCL and MCL cell lines was performed to show effects on expression of CBi and CB2 receptors with the expression of β-actin as the control for sample loading (FIGS. 21A-21D), with each cell line identified by respective initials.

[14] = system: HF cell line; experiment: High throughput screening of cell viability, HF; assay type: cell-based; conditions: 72-hour incubation
Description: as §2

[15] = system: cleaved caspase 3 and cleaved PARP in BJAB cells; experiment: Western analysis of apoptosis induction in BJAB cells; assay type: cell-based; conditions: 24 hrs
Description: No activation of apoptosis in untreated cells (control not shown). […] At 12.5 μM CBD, there was significant apoptosis induction in cleaved PARP expression. The effect of CBD on both cleaved caspase 3 (FIG. 27C) and cleaved PARP expression (FIG. 27D) was analyzed using Western analysis. Expression of the β-actin (FIG. 27E) was used as a control for equal loading.

[16] = system: LP cell line; experiment: High throughput screening of cell viability, LP; assay type: cell-based; conditions: 72-hour incubation, read-out: concentration range at which 50% cell viability was reached
Description: as §2

[17] = system: MCA cell line; experiment: High throughput screening of cell viability, MCA; assay type: cell-based; conditions: 72-hour incubation, read-out: concentration range at which 50% cell viability was reached
Description: as §2

[18] = system: EJ cancer cell line; experiment: High throughput screening of cell viability, EJ; assay type: cell-based; conditions: 72-hour incubation
Description: as §2

[19] = system: HB cell line; experiment: High throughput screening of cell viability, HB; assay type: cell-based; conditions: 72-hour incubation
Description: as §2

[20] = system: WP DLBCL cell line; experiment: MTS cell viability assay, WP; assay type: cell-based; conditions: read-out: IC50 on cell viability
[21] = system: diffuse large B-cell lymphoma (DLBCL; 16 cancer cell lines); experiment: Cell viability, 16 DLBCL cancer cell lines (Example 6); assay type: cell-based; conditions: 16 DLBCL cell lines; compared with VYR206; FIG. 17A
Description: (§3) In Examples 6-8, N4-conjugated compounds were analyzed. The effects of CBi inverse agonist SR141716 and its conjugated form-VYR206 were analyzed using diffuse large B-cell lymphoma (DLBCL; 16 cancer cell lines; FIGS. 17A and 17B) and mantle cell lymphoma (MCL; 8 cell lines; FIGS. 17C and 17D) cancer cells. […] Diffuse large B-cell lymphoma cancer cells were resistant to lower VYR206 concentration (<50 μM) (FIG. 17B). […] Rimonabant by itself has severe adverse effects in patients with high or chronic dosing. Curtailing or modifying the potency may help to reduce adverse effects while still providing a therapeutic effect against cancerous cells.

[22] = system: HB DLBCL cell line; experiment: MTS cell viability assay, HB; assay type: cell-based; conditions: read-out: IC50 on cell viability
[23] = system: LY-10 DLBCL cell line; experiment: MTS cell viability assay, LY-10; assay type: cell-based; conditions: read-out: IC50 on cell viability
Description: as §4

[24] = system: LR DLBCL cell line; experiment: MTS cell viability assay, LR; assay type: cell-based; conditions: for IC50: read-out: IC50 on cell viability
Description: as §1

[25] = system: U2932 DLBCL cancer cell line
Description: as §4

[26] = system: LY19 DLBCL cancer cell line; experiment: MTS cell viability assay, LY19; assay type: cell-based; conditions: for IC50: read-out: IC50 on cell viability
Description: as §4

[27] = system: LP DLBCL cell line; experiment: MTS cell viability assay, LP; assay type: cell-based; conditions: read-out: IC50 on cell viability
Description: as §4

[28] = system: Ly-3 DLBCL cell line; experiment: MTS cell viability assay, Ly-3; assay type: cell-based; conditions: read-out: IC50 on cell viability
Description: as §4

[29] = system: mantle cell lymphoma (MCL; 8 cell lines); experiment: Cell viability, 8 MCL cell lines (Example 6); assay type: cell-based; conditions: lower-dose 10-40 μM; steep initial slopes especially in Rec-1 and SP-53; FIG. 17C
Description: as §3

[30] = system: HF DLBCL cell line; experiment: MTS cell viability assay, HF; assay type: cell-based; conditions: read-out: IC50 on cell viability
Description: as §4

[31] = system: EJ DLBCL cancer cell line; experiment: MTS cell viability assay, EJ; assay type: cell-based; conditions: read-out: IC50 on cell viability
Description: as §4

[32] = system: DOHH2 DLBCL cell line; experiment: MTS cell viability assay, DOHH2; assay type: cell-based; conditions: Homo sapiens, DOHH-2, 72 h
Description: as §1

[33] = system: CJ DLBCL cancer cell line; experiment: MTS cell viability assay, CJ; assay type: cell-based; conditions: read-out: IC50 on cell viability
Description: as §4

[34] = system: McA DLBCL cell line; experiment: MTS cell viability assay, McA; assay type: cell-based; conditions: 72 h, read-out: IC50 on cell viability
Description: as §4

[35] = system: MS DLBCL cell line; experiment: MTS cell viability assay, MS; assay type: cell-based; conditions: 72 h
Description: as §1

[36] = system: RC DLBCL cell line; experiment: MTS cell viability assay, RC; assay type: cell-based; conditions: drug concentration 50 μM, 72 h
Description: as §1

[37] = read-out: concentration range at which 50% cell viability was reached

CN1CCCCC1Cn1cc(C(=O)c2cc([N+](=O)[O-])ccc2I)c2ccccc21 (centres unmarked) [AM 1241]
effect on the viability of DLBCL cancer cell lines ([1]; MTS): significant effect

C=C(C)[C@@H]1CCC(C)=C[C@H]1c1c(O)cc(CCCCC)cc1O [CBD, cannabidiol]
concentration giving complete cell death [2]: 50 µM
viability, agents individually [3]: modest reduction in viability
concentration giving complete cell death [4]: 50 µM
IC50 [4, 37]: 15 to 20 µM
concentration giving complete cell death [5]: 25 µM
concentration giving complete cell death [6]: 50 µM
cell viability [7]: 90%
viability response compared with VYR206 ([1]; LY19 and LR, alone and in combination, MTS, 72 h): generally the same response as VYR206
IC50 [8]: 15 to 20 µM
sensitivity of MCL cancer cells [9]: less sensitive
concentration giving complete cell death [10]: 50 µM
IC50 [10, 37]: 15 to 20 µM
susceptibility [11]: less susceptible
concentration with significant apoptosis induction in cleaved PARP expression [12]: 12.5 µM
CB2 expression [13]: modulation
concentration giving complete cell death [14]: 50 µM
concentration with significant apoptosis induction in cleaved PARP expression [15]: 12.5 µM
cleaved caspases 3 and cleaved PARP ([15]; increasing concentration): concentration-dependent increase
IC50 [16]: 15 to 20 µM
IC50 [17]: 15 to 20 µM
concentration giving complete cell death [18]: 50 µM and 25 µM
IC50 [18, 37]: 15 to 20 µM
concentration giving complete cell death [19]: 50 µM
IC50 [19, 37]: 15 to 20 µM

CCNC1(C(N)=O)CCN(c2ncnc3c2nc(-c2ccccc2Cl)n3-c2ccc(Cl)cc2)CC1 [CP945,598]
effect on the viability of DLBCL cancer cell lines ([1]; MTS): significant results depending on the specific cell line

Cc1c(C(=O)NN2CCCCC2)nn(-c2ccc(Cl)cc2Cl)c1-c1ccc(Cl)cc1 [SR141716, N-(Piperidin-1-yl)-5-(4-chlorophenyl)-1-(2,4-dichlorophenyl)-4-methyl-1H-pyrazole-3-carboxamide]
IC50 ([20]; 72 h): 25.5 µM
cell viability of DLBCL [21]: markedly decreased viability
IC50 ([22]; 72 h): 29.4 µM
IC50 ([23]; LY10, 72 h): 25.1 µM
IC50 ([24]; 72 h): 30.9 µM
induction of cell death ([24]; LR, drug concentration 50 μM, MTS, 72 h): < 90%
IC50 [25]: 26.2 µM
IC50 ([26]; 72 h): 15.2 µM
effect on viability, comparison between cell lines ([26]; LY19, MTS, 72 h incubation): more potent effect on LY19
effect on the viability of DLBCL cancer cell lines ([1]; MTS): significant results depending on the specific cell line
effectiveness on DLBCL, comparison of the two drugs ([1]; LR, MS, RC and DOHH2, MTS, 72 h): more effective to DLBCL than VYR206
IC50 [1]: 24.4 µM
IC50 ([27]; 72 h): 27.1 µM
IC50 ([28]; 72 h): 25.2 µM
cell viability in MCL cell lines [29]: reduction of cell viability
IC50 ([30]; 72 h): 32.7 µM
IC50 ([31]; 72 h): 20.6 µM
inhibition at 50 µM [32]: > 50%
IC50 ([33]; 72 h): 13.5 µM
IC50 [34]: 21.8 µM
IC50 ([35]; read-out: IC50 on cell viability): 23.7 µM
induction of cell death ([35]; MS, drug concentration 50 μM, MTS): < 90%
induction of cell death [36]: < 90%

C=C(C)[C@@H]1CCC(C)=C[C@H]1c1c(O)cc(CCCCC)cc1OCCCN1CCCNCCNCCCNCC1 [VYC203, N4-Cannabidiol]
cleaved PARP expression ([12]; 6.25, 12.5, 25 and 50 μM): Concentration-dependent increase

C=CC(=O)N1CCC[C@@H](n2nc(-c3ccc(Oc4ccccc4)cc3)c3c(N)ncnc32)C1 [ibrutinib]
IC50 ([20]; WP, MTS, 72 h incubation): 1 µM
IC50 ([22]; HB, MTS, 72 h incubation): 20 µM
IC50 ([23]; LY10, LY-10, MTS, 72 h incubation): 0.5 µM
IC50 ([24]; LR, MTS, 72 h incubation): 20 µM
IC50 [25]: 15 µM
IC50 ([26]; LY19, MTS, 72 h incubation): 10 µM
IC50 ([1]; average over the 13 DLBCL cell lines of Table 5): 15.8 µM
IC50 ([27]; LP, MTS, 72 h incubation): 6 µM
IC50 ([28]; Ly-3, MTS, 72 h incubation): 20 µM
IC50 ([30]; HF, MTS, 72 h incubation): 18 µM
IC50 ([31]; EJ, MTS, 72 h incubation): 30 µM
IC50 ([33]; CJ, MTS, 72 h incubation): 25 µM
